Source: patent US20230302013A1, “METHOD OF TREATING VIRAL-INDUCED COGNITIVE D[…] TARGETING LEAKY RyR2 CHANNELS” (The Trustees of Columbia University in the City of New York, priority 2022, published 2023)
Entries after “also recorded” stand apart in the source; their conditions may differ.

Key:
RyR2 [1] = biological target: T1, RyR2 (Homo sapiens, UniProt Q92736); format: biochemical; conditions: COVID-19 patient brain tissue lysates (Ctx, CB) treated ex vivo with 10 μM compound at 4° C.; FIGS. 3A and B; p<0.05 vs untreated COVID-19
T1 construct: RyR2 was immunoprecipitated from 1.5 mg of tissue lysate using an anti-RyR2 specific antibody; from tissue; host or cells: brain tissue (cortex, cerebellum) of COVID-19 patients and controls

RyR2 [2] = biological target: T1, RyR2; assay: [3H]ryanodine binding to immunoprecipitated RyR2 (surrogate of channel open probability / leak); format: biochemical
Protocol: RyR2 was immunoprecipitated from 1.5 mg of tissue lysate using an anti-RyR2 specific antibody (25 μg) in 1.0 ml of a modified RIPA buffer overnight at 4° C. The immune complexes were incubated with protein A-Sepharose beads (Sigma) at 4° C. for 1 h, and the beads were washed three times with RIPA buffer, followed by 2 washes with ryanodine binding buffer (10 mM Tris-HCl, pH 6.8, 1 M NaCl, 1% CHAPS, 5 mg/ml phosphatidylcholine, and protease inhibitors). Immunoprecipitates were incubated in 0.2 ml of binding buffer containing 20 nM [^3H] ryanodine and either of 150 nM and 20 μm free Ca^2+ for 1 h at 37° C. Samples were diluted with 1 ml of ice-cold washing buffer (25 mm Hepes, pH 7.1, 0.25 m KCl) and filtered through Whatman GF/B membrane filters pre-soaked with 1% polyethyleneimine in washing buffer. Filters were washed three times with 5 ml of washing buffer. The radioactivity remaining on the filters is determined by liquid scintillation counting to obtain bound [^3H] ryanodine. Nonspecific binding was determined in the presence of 1000-fold excess of non-labeled ryanodine.

T1 sequence (Q92736 whole entry): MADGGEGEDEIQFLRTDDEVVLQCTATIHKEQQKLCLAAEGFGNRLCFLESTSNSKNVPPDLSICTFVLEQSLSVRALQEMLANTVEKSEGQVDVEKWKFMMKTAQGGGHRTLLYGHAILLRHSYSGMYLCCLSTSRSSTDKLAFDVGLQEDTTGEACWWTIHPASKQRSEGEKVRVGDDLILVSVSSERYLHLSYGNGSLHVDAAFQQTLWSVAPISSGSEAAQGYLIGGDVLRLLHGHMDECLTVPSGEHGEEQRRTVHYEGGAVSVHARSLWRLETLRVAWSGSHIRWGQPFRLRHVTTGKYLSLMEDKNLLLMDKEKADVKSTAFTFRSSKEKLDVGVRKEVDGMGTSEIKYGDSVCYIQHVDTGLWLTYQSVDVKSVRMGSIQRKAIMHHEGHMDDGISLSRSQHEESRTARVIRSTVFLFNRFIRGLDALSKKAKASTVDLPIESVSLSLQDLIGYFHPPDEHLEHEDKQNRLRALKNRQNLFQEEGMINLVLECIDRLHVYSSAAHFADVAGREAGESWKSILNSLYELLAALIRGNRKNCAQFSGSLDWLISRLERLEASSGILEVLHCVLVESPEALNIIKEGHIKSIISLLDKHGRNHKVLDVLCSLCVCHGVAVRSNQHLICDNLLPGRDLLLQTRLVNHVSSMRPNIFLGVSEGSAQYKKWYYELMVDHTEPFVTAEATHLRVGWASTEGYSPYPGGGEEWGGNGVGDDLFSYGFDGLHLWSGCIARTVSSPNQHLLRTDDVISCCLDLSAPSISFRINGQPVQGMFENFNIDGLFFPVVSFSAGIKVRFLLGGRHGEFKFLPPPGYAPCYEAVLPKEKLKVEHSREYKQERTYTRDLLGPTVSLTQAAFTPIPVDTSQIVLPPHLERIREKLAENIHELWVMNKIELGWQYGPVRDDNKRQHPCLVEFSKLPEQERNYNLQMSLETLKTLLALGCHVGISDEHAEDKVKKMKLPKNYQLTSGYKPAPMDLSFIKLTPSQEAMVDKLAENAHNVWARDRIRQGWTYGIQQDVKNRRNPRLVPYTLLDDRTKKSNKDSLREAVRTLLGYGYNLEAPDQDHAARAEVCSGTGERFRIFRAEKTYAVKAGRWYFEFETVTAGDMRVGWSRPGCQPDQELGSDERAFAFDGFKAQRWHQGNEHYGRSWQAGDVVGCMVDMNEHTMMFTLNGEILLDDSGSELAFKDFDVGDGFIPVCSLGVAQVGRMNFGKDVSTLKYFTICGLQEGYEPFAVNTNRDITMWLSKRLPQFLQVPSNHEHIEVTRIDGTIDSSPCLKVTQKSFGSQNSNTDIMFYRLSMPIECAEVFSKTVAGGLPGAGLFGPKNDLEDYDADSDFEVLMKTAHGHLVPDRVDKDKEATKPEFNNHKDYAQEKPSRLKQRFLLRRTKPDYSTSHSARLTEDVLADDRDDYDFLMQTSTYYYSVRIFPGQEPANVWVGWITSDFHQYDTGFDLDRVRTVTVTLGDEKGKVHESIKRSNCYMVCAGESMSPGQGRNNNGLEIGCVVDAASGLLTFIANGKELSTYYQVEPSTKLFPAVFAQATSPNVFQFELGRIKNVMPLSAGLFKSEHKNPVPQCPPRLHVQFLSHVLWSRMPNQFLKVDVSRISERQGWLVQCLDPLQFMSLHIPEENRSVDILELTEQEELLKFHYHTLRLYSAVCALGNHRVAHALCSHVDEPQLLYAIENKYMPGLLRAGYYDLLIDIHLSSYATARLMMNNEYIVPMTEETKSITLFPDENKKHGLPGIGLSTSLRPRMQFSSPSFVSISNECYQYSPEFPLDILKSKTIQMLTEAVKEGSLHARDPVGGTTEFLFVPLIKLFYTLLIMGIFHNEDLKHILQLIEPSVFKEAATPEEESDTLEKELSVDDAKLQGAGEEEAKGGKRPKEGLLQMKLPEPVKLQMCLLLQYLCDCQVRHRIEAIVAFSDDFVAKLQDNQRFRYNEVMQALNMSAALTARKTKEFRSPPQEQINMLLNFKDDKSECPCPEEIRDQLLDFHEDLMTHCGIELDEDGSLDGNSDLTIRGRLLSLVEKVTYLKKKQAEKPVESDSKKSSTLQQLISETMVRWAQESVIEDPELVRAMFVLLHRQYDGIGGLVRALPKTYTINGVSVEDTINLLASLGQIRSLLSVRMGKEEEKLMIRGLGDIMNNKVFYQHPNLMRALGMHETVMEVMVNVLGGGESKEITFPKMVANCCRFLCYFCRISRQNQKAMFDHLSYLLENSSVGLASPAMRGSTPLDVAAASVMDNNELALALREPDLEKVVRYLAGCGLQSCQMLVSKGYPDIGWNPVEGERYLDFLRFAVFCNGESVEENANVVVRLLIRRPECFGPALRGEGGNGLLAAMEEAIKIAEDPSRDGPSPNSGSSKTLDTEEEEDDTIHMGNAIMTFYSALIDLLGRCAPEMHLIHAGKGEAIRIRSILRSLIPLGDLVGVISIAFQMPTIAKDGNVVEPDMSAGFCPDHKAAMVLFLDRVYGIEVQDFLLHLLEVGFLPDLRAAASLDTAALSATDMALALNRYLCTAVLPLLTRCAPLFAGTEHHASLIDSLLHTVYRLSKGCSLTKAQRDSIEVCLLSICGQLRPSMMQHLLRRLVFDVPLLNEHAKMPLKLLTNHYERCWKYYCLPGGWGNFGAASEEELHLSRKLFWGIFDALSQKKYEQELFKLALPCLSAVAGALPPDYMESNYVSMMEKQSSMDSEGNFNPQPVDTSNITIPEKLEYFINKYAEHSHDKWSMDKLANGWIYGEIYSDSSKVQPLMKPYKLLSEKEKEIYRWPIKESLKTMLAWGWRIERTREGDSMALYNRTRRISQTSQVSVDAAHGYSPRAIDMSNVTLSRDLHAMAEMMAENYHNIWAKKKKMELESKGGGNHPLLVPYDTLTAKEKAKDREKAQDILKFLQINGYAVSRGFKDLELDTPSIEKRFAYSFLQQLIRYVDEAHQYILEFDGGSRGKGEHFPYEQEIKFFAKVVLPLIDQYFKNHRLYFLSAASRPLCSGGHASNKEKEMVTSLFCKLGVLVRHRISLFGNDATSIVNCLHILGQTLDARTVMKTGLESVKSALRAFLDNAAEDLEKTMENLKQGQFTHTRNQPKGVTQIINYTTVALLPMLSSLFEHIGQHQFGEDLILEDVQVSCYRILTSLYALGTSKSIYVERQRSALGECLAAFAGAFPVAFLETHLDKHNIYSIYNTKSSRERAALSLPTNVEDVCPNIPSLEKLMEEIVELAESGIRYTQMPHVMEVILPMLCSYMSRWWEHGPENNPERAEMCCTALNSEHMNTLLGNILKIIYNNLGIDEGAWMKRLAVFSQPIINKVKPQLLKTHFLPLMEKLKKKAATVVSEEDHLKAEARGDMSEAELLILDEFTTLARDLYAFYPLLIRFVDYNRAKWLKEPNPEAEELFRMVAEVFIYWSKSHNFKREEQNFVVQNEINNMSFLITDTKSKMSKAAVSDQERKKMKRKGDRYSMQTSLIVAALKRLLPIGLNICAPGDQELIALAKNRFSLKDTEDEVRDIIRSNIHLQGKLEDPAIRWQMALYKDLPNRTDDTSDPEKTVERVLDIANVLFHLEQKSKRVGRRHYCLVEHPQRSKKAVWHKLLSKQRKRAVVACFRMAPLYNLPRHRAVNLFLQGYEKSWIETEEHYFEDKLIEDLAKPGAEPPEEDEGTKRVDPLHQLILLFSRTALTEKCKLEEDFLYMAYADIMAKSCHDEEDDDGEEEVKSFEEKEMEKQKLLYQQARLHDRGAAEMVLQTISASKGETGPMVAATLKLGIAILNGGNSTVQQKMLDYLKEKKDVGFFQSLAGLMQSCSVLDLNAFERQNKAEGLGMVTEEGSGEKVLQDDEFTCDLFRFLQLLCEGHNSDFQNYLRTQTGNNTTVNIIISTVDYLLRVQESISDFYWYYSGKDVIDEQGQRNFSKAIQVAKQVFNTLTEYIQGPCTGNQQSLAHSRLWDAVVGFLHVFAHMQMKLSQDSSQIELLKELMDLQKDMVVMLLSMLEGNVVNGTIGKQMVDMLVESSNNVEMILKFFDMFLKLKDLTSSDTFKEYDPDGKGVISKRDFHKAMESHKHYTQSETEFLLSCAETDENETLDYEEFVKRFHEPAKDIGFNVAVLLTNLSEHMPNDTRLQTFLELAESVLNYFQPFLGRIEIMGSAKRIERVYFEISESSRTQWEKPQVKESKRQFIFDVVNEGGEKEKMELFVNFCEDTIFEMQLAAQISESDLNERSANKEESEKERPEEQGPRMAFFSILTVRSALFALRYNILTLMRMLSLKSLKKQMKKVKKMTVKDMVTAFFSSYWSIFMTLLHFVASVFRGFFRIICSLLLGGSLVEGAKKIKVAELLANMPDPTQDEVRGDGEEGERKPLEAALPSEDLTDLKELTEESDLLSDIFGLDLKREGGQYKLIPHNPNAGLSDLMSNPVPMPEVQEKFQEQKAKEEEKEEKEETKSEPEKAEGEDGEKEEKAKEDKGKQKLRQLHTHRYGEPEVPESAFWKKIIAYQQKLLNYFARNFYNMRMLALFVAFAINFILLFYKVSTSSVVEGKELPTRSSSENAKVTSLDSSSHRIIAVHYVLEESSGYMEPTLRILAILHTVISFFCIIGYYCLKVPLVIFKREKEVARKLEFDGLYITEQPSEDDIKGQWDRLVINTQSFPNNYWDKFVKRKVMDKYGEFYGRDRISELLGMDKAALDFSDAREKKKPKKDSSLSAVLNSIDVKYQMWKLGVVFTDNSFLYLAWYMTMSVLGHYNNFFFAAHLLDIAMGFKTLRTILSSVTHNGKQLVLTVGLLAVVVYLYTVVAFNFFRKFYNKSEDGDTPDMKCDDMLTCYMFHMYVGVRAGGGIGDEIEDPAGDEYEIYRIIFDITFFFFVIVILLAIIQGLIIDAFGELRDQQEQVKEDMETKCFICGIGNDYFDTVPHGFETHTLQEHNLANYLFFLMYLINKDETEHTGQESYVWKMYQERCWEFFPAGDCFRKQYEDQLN
T1 sequence (P68106 whole entry partner): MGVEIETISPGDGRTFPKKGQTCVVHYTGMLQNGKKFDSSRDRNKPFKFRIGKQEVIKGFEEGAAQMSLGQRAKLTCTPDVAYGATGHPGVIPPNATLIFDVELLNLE

COc1ccc2c(c1)CN(Cc1ccc(C(=O)O)cc1)CCS2 [Compound 1]
calstabin2 binding to RyR2 (RyR2 [1]): increased | abnormal RyR2 activity ([3H]ryanodine binding) at resting Ca2+ concentration (RyR2 [2]; RyR2 immunoprecipitated from COVID-19 brain lysates, 150 nM free Ca2+, as percent of maximum binding (20 μM Ca2+), FIG. 3C, p<0.05 vs untreated COVID-19): decreased | RyR2 channel leak (RyR2 [2]; ex vivo treatment of COVID-19 patient brain samples): corrected; also recorded: fixed the channel leak
